Data reported in patent US6043223A, “Enhanced opening of abnormal brain tissue capillaries” (priority 1997, dated 2000).
Where a SMILES comes first, the peptide text is derived from it.

What was measured:
RG2 gliomas = experiment: Regional permeability (Ki) by quantitative autoradiography in rats with implanted RG2 gliomas; type: in vivo, rat; settings: for effect on tumor permeability 20 minutes after stopping the intracarotid infusion (in words): [14C]-dextran
Protocol: (§1) RG2 and C6 are cell lines derived from rat gliomas induced by ethylnitrosourea (17,18). The glioma cells were kept frozen until use, then thawed and maintained in a monolayer culture in F12 medium with 10% calf serum. The rats were anesthetized with intra-peritoneal ketamine (50 mg/kg). Glial tumors were implanted into the right hemisphere by intracerebral injections of 1×10^5 glioma cells in 5 μl F12 medium (1.2% methylcellulose) by a Hamilton syringe. The coordinates used were 5 mm lateral to the bregma, and 4.5 mm deep to the dural surface.
(§2) Seven or eight days after tumor implantation, the rats were anesthetized with intra-peritoneal urethane (1 g/kg) and a polyethylene catheter was inserted retrograde through the external carotid artery to the common carotid artery bifurcation ipsilateral to the tumor. The external carotid artery and pterygopalatine artery were then ligated. Both femoral veins were cannulated for administration of drugs or tracers. One femoral artery was cannulated to monitor systemic blood pressure and the other femoral artery was cannulated to withdraw arterial blood. Body temperature was maintained at 37° C. and arterial blood gases, blood pressure, and hematocrit were monitored.
The tumor-implanted rats were grouped by tracers and by tumor types. Bradykinin (Sigma Chemical Co., St. Louis, Mo.) or PBS (control) was infused into the right carotid artery at a rate of 53.3 μl/minute (10 μg/kg/minute) for 15 minutes. In regional permeability studies, 5 minutes after the start of the intracarotid infusion, […] of [^14 C]-AIB (MW 103, Dupon-New England Nuclear Co., Boston, Mass.) or [^14 C]-Dextran (MW 70,000, Dupon-New England Nuclear Co.) was injected as an intravenous bolus. A peristaltic withdrawal pump was used to withdraw femoral arterial blood at a constant rate of […] immediately after the injection of the tracer for the determination of serum radioactivity. Fifteen minutes after the start of intracarotid infusions, the animals were killed by decapitation and the brains were rapidly removed and frozen.
Bradykinin, zaprinast or bradykinin mixed with zaprinast was infused into the right carotid artery at a rate of 53.3 μl/minute for 15 minute. The rate of infusion of bradykinin and zaprinast was 10 μg/kg/minute and 1.67 mg/kg/minute ([…]) respectively. Injection of tracer, withdrawing of arterial blood, and other protocols were in the same manner as described above.
The duration of the effect of the intracarotid bradykinin with or without zaprinast infusion in RG2 glioma was examined at three different periods by changing the time of [^14 C]-dextran injection relative to intracarotid infusion of bradykinin with or without zaprinast.
The frozen brains were mounted onto pedestals with M-1 embedding matrix (Lipshaw, Pittsburgh, Pa.) and 20 μm coronal sections were cut with a cryotome. The sections were thawmounted onto cover slips and autoradiograms were generated by co-exposing the sections on Kodak XAR-5 film with tissue calibrated [^14 C]-standards (Amersham, Arlington Heights, Ill.) for 2 weeks. The sequential section was stained with hematoxylin for the correlation of areas of histologically verified tumor areas with autoradiograms. The regional radioactivity was measured in the tumor, BST (areas within 2 mm distance from the border of the tumor), right cortex (ipsilateral cortex), left cortex (contralateral cortex), right white matter, left white matter, right basal ganglia, and left basal ganglia. Quantitative analysis of the regional radioactivity was performed using a computer (Power Macintosh 7100) and the software, Image 1.55 (NIH).
For quantitative autoradiographic examination, the regional permeability in the brain and tumor tissues were expressed by the unidirectional transfer constant, Ki value (μl/g/minute) which was determined as described in References 21, 22, 23 and 24). […]

C6 gliomas = experiment: Regional permeability (Ki) by quantitative autoradiography in rats with implanted C6 gliomas; type: in vivo, rat
Protocol: as §1, §2
The tumor-implanted rats were grouped by tracers and by tumor types. Bradykinin (Sigma Chemical Co., St. Louis, Mo.) or PBS (control) was infused into the right carotid artery at a rate of 53.3 μl/minute (10 μg/kg/minute) for 15 minutes. […] A peristaltic withdrawal pump was used to withdraw femoral arterial blood at a constant rate of […] immediately after the injection of the tracer for the determination of serum radioactivity. […]
The frozen brains were mounted onto pedestals with M-1 embedding matrix (Lipshaw, Pittsburgh, Pa.) and 20 μm coronal sections were cut with a cryotome. […] The regional radioactivity was measured in the tumor, BST (areas within 2 mm distance from the border of the tumor), right cortex (ipsilateral cortex), left cortex (contralateral cortex), right white matter, left white matter, right basal ganglia, and left basal ganglia. Quantitative analysis of the regional radioactivity was performed using a computer (Power Macintosh 7100) and the software, Image 1.55 (NIH).
For quantitative autoradiographic examination, the regional permeability in the brain and tumor tissues were expressed by the unidirectional transfer constant, Ki value (μl/g/minute) which was determined as described in References 21, 22, 23 and 24).
For all tracers, statistical comparison of regional Ki values or blood volume between same regions with/without bradykinin or zaprinast were determined using analysis of variance (ANOVA) followed by non-parametric analysis of Mann-Whitney's U test. […]

brain tumor capillaries = settings: intracarotid infusion; previous studies (6-9); cited from earlier work
[1] = Solubility of zaprinast in saline; type: physicochemical
Protocol: The bradykinin/bradykinin analog and zaprinast are preferably infused in the form of a pharmaceutical solution having a […] phosphate buffered saline solution as the carrier. The concentration of bradykinin in the solution is 10-40 μg/ml with the preferred concentration of zaprinast being on the order of 1 to 10 mg/ml for carotid artery administration. For intravenous administration, the concentration of bradykinin/bradykinin analog is preferably between about 15 μg/ml to 50 mg/ml with the preferred concentration of zaprinast being on the order of 2 mg/ml to 15 mg/ml. Zaprinast is not soluble directly in saline. Accordingly, it is preferred that the pharmaceutical solution be prepared by dissolving zaprinast in 1 M sodium hydroxide to form a concentrated solution of approximately 100 to 500 mg/ml zaprinast. This concentrated solution is then dissolved into phosphate buffered saline (PBS) to the final desired concentration. Bradykinin or the bradykinin analog is then added to the solution to form the final pharmaceutical preparation. The relative concentrations within the pharmaceutical preparation are adjusted as set forth above to provide a solution which is suitable for either carotid artery infusion or intravenous administration.

[2] = rat, in vivo
From the text: as §2

## NC(N)=NCCC[C@H](NC(=O)[C@H](Cc1ccccc1)NC(=O)[C@@H]1CCCN1C(=O)[C@H](CO)NC(=O)[C@H](Cc1ccccc1)NC(=O)CNC(=O)[C@@H]1CCCN1C(=O)[C@@H]1CCCN1C(=O)[C@@H](N)CCCN=C(N)N)C(=O)O [bradykinin] (H-RPPGFSPFR-OH)
RG2 gliomas; RG2-bearing rats, [14C]-dextran and [14C]-AIB
  transport (Ki) of either tracer in other normal brain / non-tumor regions (in words): did not increase
RG2 gliomas; RG2, brain surrounding tumor, intracarotid infusion 15 minutes
  Ki for AIB in BST (brain within 2 mm of the tumor): 5.31 ± 1.50 µL/g/min
RG2 gliomas; RG2, brain surrounding tumor, vs control
  Ki for dextran in BST (in words): not significantly increased
RG2 gliomas; RG2 tumor, time course study
  effect on tumor permeability 20 minutes after stopping the intracarotid infusion (in words): diminished
  [14C]-dextran uptake into the tumor (Ki) 10 minutes after stopping the intracarotid infusion: 3.89 ± 0.74 µL/g/min
RG2 gliomas; RG2 tumor, bradykinin 10 μg/kg/minute intracarotid vs PBS control
  Ki in tumors for [14C]-dextran, fold higher than in controls: 8.4 fold
RG2 gliomas; RG2 tumor, intracarotid infusion 15 minutes (bradykinin 10 μg/kg/minute, zaprinast 1.67 mg/kg/minute), mean±SD
  Ki in tumors for [14C]-AIB (MW 103): 26.46 ± 2.64 µL/g/min
RG2 gliomas; RG2 tumor, intracarotid infusion 15 minutes (bradykinin 10 μg/kg/minute, zaprinast 1.67 mg/kg/minute), tracer i.v. 5 minutes after start, mean±SD
  transfer constant, Ki, in tumors for [14C]-dextran (MW 70,000): 14.33 ± 2.96 µL/g/min
C6 gliomas; C6-bearing rats, [14C]-dextran and [14C]-AIB
  transport (Ki) for either tracer in non-tumor regions (in words): did not increase
C6 gliomas; C6 tumor, bradykinin intracarotid vs PBS control
  Ki in tumors for [14C]-dextran, fold higher than in controls: 3.1 fold

## CCCCC/C=C\C\C=C/C=C/C=C/[C@@H](SC[C@H](NC(=O)CC[C@H](N)C(=O)O)C(=O)NCC(=O)O)[C@@H](O)CCCC(=O)O [LTC4, leukotriene C4]
Brain tumor capillaries
  permeability in brain tumor capillaries vs normal brain capillaries (in words): selectively increases

## CCCOc1ccccc1-c1nc2nn[nH]c2c(=O)[nH]1 [zaprinast, 2-(2-propyloxyphenyl)-8-azapurin-6-one]
RG2 gliomas; RG2 tumor, FIG. 5 time course
  bradykinin effect on tumor permeability (Ki) at 10 minutes after infusion (in words): significantly prolonged
RG2 gliomas; RG2 tumor, time course study
  effect on tumor permeability 20 minutes after stopping the intracarotid infusion (in words): negligible
RG2 gliomas; zaprinast alone, intracarotid, [14C]-dextran and [14C]-AIB
  Ki values in RG2 tumors for both tracers (in words): did not increase
[1]
  solubility in saline (in words): not soluble
[2]
  blood gas parameters or hemoglobin concentration (in words): did not change
C6 gliomas; C6 tumor, intracarotid infusion 15 minutes (bradykinin 10 μg/kg/minute, zaprinast 1.67 mg/kg/minute)
  Ki in tumors for [14C]-AIB: 31.4 µL/g/min
C6 gliomas; C6 tumor, zaprinast alone, intracarotid
  Ki values in C6 tumors for [14C]-dextran, increase with zaprinast alone (in words): not
